In one series the target is HIV-1JRCSF. The format is cell-based. The following applies: Fig 1; replication-competent virus; mean ± SD of three assays in triplicate; read-out: Anti-HIV activity (IC50, pM) JRCSF infection. How it is done:
(§1) The inhibitory activities of inhibitors against HIV-1 pseudoviruses and replication-competent isolates were measured as described previously. Briefly, HIV-1 pseudoviruses were generated via the cotransfection of HEK293T cells with an Env-expressing plasmid and a backbone plasmid that encodes Env-defective, luciferase-expressing HIV-1 genome (pSG3Δenv). Viral stocks of replication-competent HIV-1 isolates were generated by transfecting viral molecular clones into HEK293T cells. Culture supernatants were harvested at 48 h posttransfection, and 50% tissue culture infectious doses (TCID50) in TZM-bl cells were determined. Inhibitors were prepared in 3-fold dilutions, mixed with 100 TCID50 of a virus, and then incubated for 1 h at room temperature. The mixture was added to TZM-bl cells (10^4/well), and the cells were incubated for additional 48 h at 37°C. Luciferase activity was measured as described above.

A further series deals with T1, HIV-1HXB2 Env (Human immunodeficiency virus type 1 group M subtype B, UniProt P04578).
T1 construct: HL2/3 cells, which stably express high levels of Env, Gag, Tat, Rev, and Nef proteins of the integrated HIV-1 molecular clone HXB2/3gpt; host or cells: HL2/3 cells (effector), cocultured with TZM-bl target cells
As to the kind of experiment: HIV-1HXB2 Env-mediated cell-cell fusion (HL2/3 effector, TZM-bl target, luciferase reporter). The format is cell-based. How it is done:
The inhibitory activities of inhibitors on HIV-1HXB2 Env-mediated cell-cell fusion were determined by a reporter gene assay based on the activation of an HIV LTR-driven luciferase cassette in TZM-bl cells (target) by HIV-1 tat from HL2/3 cells (effector). Briefly, 1 x 10^4/well of TZM-bl cells were plated in 96-well plates and incubated at 37°C overnight. Then, 3 x 10^4/well of HL2/3 cells were cocultured with target cells for 6 h at 37°C in the presence or absence of an inhibitor at graded concentrations. Luciferase activity was measured using luciferase assay reagents and a Luminescence Counter (Promega, Madison, Wisconsin, USA).

Series [1] relates to HIV-1NL4-3(D36G) pseudovirus. Type of series: cell-based. The following applies: Fig 1; NL4-3(D36G) pseudovirus; mean ± SD of three assays in triplicate; read-out: Anti-HIV activity (IC50, pM) NL4-3 entry. The protocol:
as §1, with “Culture supernatants were harvested at 48 h posttransfection, and 50% tissue culture infectious doses (TCID50) in TZM-bl cells were determined.” left out, “The mixture was added to TZM-bl cells (10^4/well), and the cells were incubated for additional 48 h at 37°C.” left out

The conditions of series [2]: lipopeptide alone, 10 μM in PBS, representative of 2 assays.
In series [3] the target is T2, gp41 NHR-derived target mimic peptide N39 (Human immunodeficiency virus type 1 group M subtype B, UniProt P04578).
T2 construct: the gp41 NHR-derived target mimic peptide N39
As to the kind of experiment: CD spectroscopy of lipopeptides in complex with target mimic peptide N39. Type of series: binding, HIV-1. Also on record: [θ]222: unit not given here. The following applies: complex with N39, each peptide 10 μM in PBS; representative of 2 assays. An excerpt:
Spectra were corrected by subtracting a solvent blank.

The results in this text go back to article PMC6375636, “Monotherapy with a low-dose lipopeptide HIV fusion inhibitor maintains long-term viral suppression in rhesus macaques” (PLoS Pathogens, 2019).

Peptide text beside a SMILES is read from it. * marks the point of attachment. Docosanoyl = CCCCCCCCCCCCCCCCCCCCCC(=O)*; Arachidoyl = CCCCCCCCCCCCCCCCCCCC(=O)*; X1 = CCCCCCCCCCCCCCCCCCCCCCCC(=O)*

T1 sequence (P04578 512-856): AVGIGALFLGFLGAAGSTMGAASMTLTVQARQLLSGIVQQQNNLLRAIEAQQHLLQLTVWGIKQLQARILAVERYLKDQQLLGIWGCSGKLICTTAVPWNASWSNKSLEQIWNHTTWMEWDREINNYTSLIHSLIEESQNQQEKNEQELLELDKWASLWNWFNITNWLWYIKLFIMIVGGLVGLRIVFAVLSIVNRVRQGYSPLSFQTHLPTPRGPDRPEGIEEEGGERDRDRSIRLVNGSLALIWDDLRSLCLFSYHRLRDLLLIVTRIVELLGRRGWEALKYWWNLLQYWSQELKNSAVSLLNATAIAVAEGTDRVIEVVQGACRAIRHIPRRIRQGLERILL
T2 sequence (P04578 528-566): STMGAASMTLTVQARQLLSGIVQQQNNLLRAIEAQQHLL

A word on the IC50: it is the concentration at which inhibition is half-maximal. As for `CCCCCCCCCCCCCCCCCCCCCCCC(=O)NCCCC[C@H](NC(=O)[C@H](CCC(=O)O)NC(=O)[C@H](CC(C)C)NC(=O)[C@H](CCCCN)NC(=O)[C@H](CCCCN)NC(=O)[C@H](CC(C)C)NC(=O)[C@H](CCC(=O)O)NC(=O)[C@H](CCC(=O)O)NC(=O)[C@H](CCC(=O)O)NC(=O)[C@H](CC(N)=O)NC(=O)[C@H](CCCCN)NC(=O)[C@H](CCCCN)NC(=O)[C@H](CCC(N)=O)NC(=O)[C@H](CCC(N)=O)NC(=O)[C@H](CCC(=O)O)NC(=O)[C@H](CCC(=O)O)NC(=O)[C@H](C)NC(=O)[C@H](CCCCN)NC(=O)[C@H](CCCCN)NC(=O)[C@H](CC(C)C)NC(=O)[C@H](CC(C)C)NC(=O)[C@H](CCC(=O)O)NC(=O)[C@H](CCC(=O)O)NC(=O)[C@@H](NC(=O)[C@H](CCCCN)NC(=O)[C@H](CCC(N)=O)NC(=O)[C@H](CCC(=O)O)NC(=O)[C@H](Cc1c[nH]c2ccccc12)NC(C)=O)[C@@H](C)CC)C(N)=O` [LP-77] (Ac-WEQKIEELLKKAEEQQKKNEEELKKLEK(X1)-NH2), the results for the IC50 (at HIV-1JRCSF; against HIV-1HXB2 Env; in series [1]) were 12 ± 1.34 pM, 0.161 ± 0.00664 nM and 7.98 ± 0.97 pM, respectively.
The matching figures for `CCCCCCCCCCCCCCCCCCCCCC(=O)NCCCC[C@H](NC(=O)[C@H](CCC(=O)O)NC(=O)[C@H](CC(C)C)NC(=O)[C@H](CCCCN)NC(=O)[C@H](CCCCN)NC(=O)[C@H](CC(C)C)NC(=O)[C@H](CCC(=O)O)NC(=O)[C@H](CCC(=O)O)NC(=O)[C@H](CCC(=O)O)NC(=O)[C@H](CC(N)=O)NC(=O)[C@H](CCCCN)NC(=O)[C@H](CCCCN)NC(=O)[C@H](CCC(N)=O)NC(=O)[C@H](CCC(N)=O)NC(=O)[C@H](CCC(=O)O)NC(=O)[C@H](CCC(=O)O)NC(=O)[C@H](C)NC(=O)[C@H](CCCCN)NC(=O)[C@H](CCCCN)NC(=O)[C@H](CC(C)C)NC(=O)[C@H](CC(C)C)NC(=O)[C@H](CCC(=O)O)NC(=O)[C@H](CCC(=O)O)NC(=O)[C@@H](NC(=O)[C@H](CCCCN)NC(=O)[C@H](CCC(N)=O)NC(=O)[C@H](CCC(=O)O)NC(=O)[C@H](Cc1c[nH]c2ccccc12)NC(C)=O)[C@@H](C)CC)C(N)=O` [LP-78] (Ac-WEQKIEELLKKAEEQQKKNEEELKKLEK(Docosanoyl)-NH2): 7.16 ± 2.01 pM, 0.0544 ± 0.00709 nM and 3.73 ± 0.45 pM.
With `CCCCCCCCCCCCCCCCCCCC(=O)NCCCC[C@H](NC(=O)[C@H](CCC(=O)O)NC(=O)[C@H](CC(C)C)NC(=O)[C@H](CCCCN)NC(=O)[C@H](CCCCN)NC(=O)[C@H](CC(C)C)NC(=O)[C@H](CCC(=O)O)NC(=O)[C@H](CCC(=O)O)NC(=O)[C@H](CCC(=O)O)NC(=O)[C@H](CC(N)=O)NC(=O)[C@H](CCCCN)NC(=O)[C@H](CCCCN)NC(=O)[C@H](CCC(N)=O)NC(=O)[C@H](CCC(N)=O)NC(=O)[C@H](CCC(=O)O)NC(=O)[C@H](CCC(=O)O)NC(=O)[C@H](C)NC(=O)[C@H](CCCCN)NC(=O)[C@H](CCCCN)NC(=O)[C@H](CC(C)C)NC(=O)[C@H](CC(C)C)NC(=O)[C@H](CCC(=O)O)NC(=O)[C@H](CCC(=O)O)NC(=O)[C@@H](NC(=O)[C@H](CCCCN)NC(=O)[C@H](CCC(N)=O)NC(=O)[C@H](CCC(=O)O)NC(=O)[C@H](Cc1c[nH]c2ccccc12)NC(C)=O)[C@@H](C)CC)C(N)=O` [LP-79] (Ac-WEQKIEELLKKAEEQQKKNEEELKKLEK(Arachidoyl)-NH2), the IC50 at HIV-1JRCSF was determined as 5.7 ± 0.86 pM; against HIV-1HXB2 Env, 0.0387 ± 0.00447 nM; in series [1] it was 4.39 ± 0.67 pM. Further, the “Helix content (%)” value in series [2] ([θ]222 / -33,000) is reported as 48%; in series [3], 55%. The “Tm (°C)” value in series [2] (ellipticity at 222 nm, 20-98°C, 2°C/min) was found to be 56 °C. Also, the “[θ]222” value in series [3] is given as -18030.
On to “Ac-WEQKIEELLKKAEEQQKKNEEELKKLEK-NH2 [Lipopeptide P-52]”, for which the figures for the IC50 (at HIV-1JRCSF; against HIV-1HXB2 Env; in series [1]) were 2170 ± 146 pM, 1.34 ± 0.119 nM and 2620 ± 235 pM, respectively.
